# Test results from EP0761672A1, “Cephalosporin containing in position 7 a substituted benzyloxyimino radical, processes for their preparation and intermediates for their preparation, their use as medicaments” (ROUSSEL UCLAF, priority 1995, dated 1997).
# How the values were obtained:
# Test in all cases: In vitro activity, dilution method in solid medium (MIC)
# Format in all cases: cell-based
# [1] = test system: Enterobactéries Céfotaxime résistantes; conditions: 24 h, read-out: concentrations minimales inhibitrices (CMI), moyennes géométriques
# Procedure: (§1) Activité in vitro, méthode des dilutions en milieu solide.
# (§2) On prépare une série de boîtes dans lesquelles on répartit une même quantité de milieu nutritif stérile, contenant des quantités croissantes du produit à étudier puis chaque boîte est ensemencée avec plusieurs souches bactériennes.
# (§3) Après incubation de 24 heures en étuve à 37°C, l'inhibition de la croissance est appréciée par l'absence de tout développement bactérien ce qui permet de déterminer les concentrations minimales inhibitrices (CMI) exprimées en microgrammes/cm^3.
# (§4) Les résultats sont exprimés sous forme de moyennes géométriques de toutes les CMI obtenues, pour un groupe de souches particulier.
# [2] = test system: Staphylocoques Pénicilline résistants; conditions: Staphylocoques Pénicilline résistants (22 souches); geometric mean of all MICs of the strain group; 24 h incubation at 37°C; read-out: concentrations minimales inhibitrices (CMI), moyennes géométriques
# Procedure: as §1, §2, §3, §4
# Pseudomonas aeruginosa = Pseudomonas aeruginosa (23 souches); geometric mean of all MICs of the strain group; 24 h incubation at 37°C; read-out: concentrations minimales inhibitrices (CMI), moyennes géométriques
# Procedure: as §1, §2, §3, §4
SMILES,MIC [1] [µg/mL],MIC [2] [µg/mL],MIC (Pseudomonas aeruginosa) [µg/mL]
Nc1nc(/C(=N/OCc2cc(Cl)c(O)c(O)c2Cl)C(=O)N[C@@H]2C(=O)N3C(C(=O)[O-])=C(/C=C/C[n+]4cccc5ccccc54)CS[C@H]23)cs1 [Exemple 1],0.11,0.78,
Nc1nc(/C(=N/OCc2cc(Cl)c(O)c(O)c2Cl)C(=O)N[C@@H]2C(=O)N3C(C(=O)[O-])=C(/C=C/C[n+]4ccn5ccccc54)CS[C@H]23)cs1 [Exemple 2],0.19,0.91,0.42
Nc1nc(/C(=N/OCc2cc(Cl)c(O)c(O)c2Cl)C(=O)N[C@@H]2C(=O)N3C(C(=O)[O-])=C(/C=C/C[n+]4cccc5c4CCC5)CS[C@H]23)cs1 [Exemple 3],0.13,1.37,0.26
Nc1nc(/C(=N/OCc2cc(F)c(O)c(O)c2F)C(=O)N[C@@H]2C(=O)N3C(C(=O)[O-])=C(/C=C/C[n+]4cccc5ccccc54)CS[C@H]23)cs1 [Exemple 4],0.38,0.37,0.14
Nc1nc(/C(=N/OCc2cc(F)c(O)c(O)c2F)C(=O)N[C@@H]2C(=O)N3C(C(=O)[O-])=C(/C=C/C[n+]4ccn5ccccc54)CS[C@H]23)cs1 [Exemple 5],0.26,0.55,
Nc1nc(/C(=N/OCc2cc(F)c(O)c(O)c2F)C(=O)N[C@@H]2C(=O)N3C(C(=O)[O-])=C(/C=C/C[n+]4cccc5c4CCC5)CS[C@H]23)cs1 [Exemple 6],0.36,0.63,1.12
Nc1nc(/C(=N/OCc2cc(O)c(O)c(F)c2)C(=O)N[C@@H]2C(=O)N3C(C(=O)[O-])=C(/C=C/C[n+]4cccc5ccccc54)CS[C@H]23)cs1 [Exemple 7],0.2,0.3,0.47
COC(=O)C(O/N=C(\C(=O)N[C@@H]1C(=O)N2C(C(=O)[O-])=C(/C=C/C[n+]3cccc4ccccc43)CS[C@H]12)c1csc(N)n1)c1cc(O)c(O)c(F)c1 (stereo partly drawn) [Exemple 8],,0.3,0.49
